The data set is described as follows: gradient 5% acetonitrile 3 min, to 50% in 2 min, to 85% in 15 min, held 3 min, 100 µL/min. The settings on record: column: Zorbax Extend-C18 2.1 x 50 mm; eluents: water / acetonitrile, 0.1% formic acid. A digest of the protocol: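 Pure standards were analyzed in mixtures of ~100 molecules using HPLC coupled to a quadrupole time-of-flight mass spectrometer, in both positive and negative ionization mode. Separation used a Zorbax Extend-C18 column (2.1 × 50 mm, 1.8 μm) at 100 μL/min, with water and acetonitrile each containing 0.1% formic acid. Dead and dwell volumes were 40 μL and 900 μL, and data were collected over 3 months. Retention time was read from computationally picked adduct peaks, each inspected manually.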
As for `COc1ccc(CCC(=O)N2CCCC2c2c(C)noc2C)cc1` (stereo not given), the RP-LC retention time came out at 868 s. The compound `CCN1CCN(c2cc(C)c3cc(NC(=S)N4CCC(N5CCCCC5)CC4)ccc3n2)CC1` displayed an RP-LC retention time of 488 s. Regarding `CCC(C(=O)NCc1ccc2c(c1)ncn2CC)c1ccccc1` (stereo not given), the RP-LC retention time was 660 s. The result for `Cc1cccc(N2CCN(C(=O)C3c4ccccc4CCN3C(=O)C3CC3)CC2)c1C` (stereo not given) reads 1080 s; that for `CN1C(=O)C2(CCN(C(=O)CCc3ccccc3)C2)c2ccccc21` (stereo not given), 803 s. Take `COCCNC(=O)C1CCN(c2nccnc2Sc2ccccc2)CC1`: the RP-LC retention time is 764 s. On to `Cc1nc(Nc2ccccn2)sc1C(=O)N1CCSCC1`, for which the RP-LC retention time came to 703 s. In turn, `COc1ccc(-c2nnc(-c3cccnc3N3CCN(c4ccc(C)cc4)CC3)o2)cc1` displayed an RP-LC retention time of 1060 s.

Compound `Cc1nc2cc(NC(=O)c3cn(C)nn3)ccc2s1` came in with an RP-LC retention time of 629 s.

Regarding `COc1ccccc1-c1nc(Cn2nnc(-c3nc(-c4ccccn4)no3)c2C)c(C)o1`, the RP-LC retention time stood at 827 s. The result for `O=C(NC1CCc2ccccc21)C1CCN(c2ncnc3c2oc2ccccc23)CC1` (stereo not given) reads 778 s. `CCCCC(=O)Nc1ccc2nc(N3CCN(c4cccc(C)c4)CC3)cc(C(=O)O)c2c1` yielded an RP-LC retention time of 722 s. As for `COC(=O)c1cnc(N2CCN(c3ccc(OC)cc3)CC2)c2ccccc12`, the RP-LC retention time was 980 s. The compound `CC1CC(C)CN(CCCNC(=O)CCCOc2cc(=O)n(C)c3ccccc23)C1` (stereo not given) returned an RP-LC retention time of 604 s. Compound `CCCS(=O)(=O)N1CC[C@@H]2COCCN(Cc3ccccc3)[C@@H]2C1` showed an RP-LC retention time of 626 s.

On to `Cc1ccc(-c2cn3c(CC(=O)N4CCCc5ccccc54)csc3n2)cc1C`, for which the RP-LC retention time stood at 956 s.

In the case of `O=C(NC1CCCCC1)c1ccc2ccnc(N3CCN(c4ccc(Cl)cc4)CC3)c2c1`, the RP-LC retention time came out at 986 s. In the case of `CC(C(=O)N1CCN(c2ccccn2)CC1)n1ccc2cc(S(=O)(=O)N3CCCC3)ccc21` (stereo not given), the RP-LC retention time is 660 s.

The compound `Cc1ccc(S(=O)(=O)N2CCC(C(=O)NCC(=O)N3CCCc4ccccc43)CC2)cc1` returned an RP-LC retention time of 843 s. For `Cc1ccc(C(=O)NCC(=O)Nc2nc3ccccc3[nH]2)c(C)c1` the value was 639 s; for `COC1CCOC2(CCN(C(=O)c3ccoc3)CC2)C1` (stereo not given), 652 s. The compound `CSc1nnc(-c2nn(C)c3c2CN(C(=O)c2ccc(F)c(F)c2)CC3)n1C` showed an RP-LC retention time of 720 s. Compound `COc1ccc(CNC(=O)c2cn(C)c3ncccc23)cc1` showed an RP-LC retention time of 711 s.

The compound `Cc1nccn1Cc1nc(-c2cccc(F)c2)no1` gave an RP-LC retention time of 607 s.

Consider `CO/N=C1/CN(c2nc3c(cc2F)c(=O)c(C(=O)O)cn3C2CC2)CC1CN` (stereo not given), for which the RP-LC retention time stood at 636 s. The result for `O=C(CN1CCN(c2ccccc2)CC1)Nc1nc(-c2ccc(Cl)cc2)cs1` reads 834 s; that for `CC(C)S(=O)(=O)N1CCC(F)(c2nc(-c3ccccc3)no2)CC1`, 1020 s. For `CNC(=O)c1ccc(N2C(=S)N(c3cnc(C#N)c(C(F)(F)F)c3)C(=O)C23CCC3)cc1F`, the RP-LC retention time stood at 993 s.

In the case of `CCC(C)C(=O)NC1CCN(C2=NS(=O)(=O)C(c3ccc(C(C)C)cc3)=C2C)CC1` (stereo not given), the RP-LC retention time amounted to 962 s. As to `CCN(CC)S(=O)(=O)c1ccc(NC(=O)N2CCC(C(=O)Nc3ccc(Cl)cc3)CC2)s1`, the RP-LC retention time was 931 s. `Cc1ccc2oc(N3CCCN(C(=O)c4ccc(-c5noc(C6CC6)n5)cc4)CC3)nc2n1` yielded an RP-LC retention time of 648 s. In turn, `COc1cccc(-c2cn3c(C(=O)Nc4ncccc4C)csc3n2)c1` had an RP-LC retention time of 732 s.

`O=c1n(Cc2ccccc2)nc2ccc(S(=O)(=O)N3CCc4ccccc4C3)cn12`: the RP-LC retention time turned out to be 644 s. The compound `CCn1c(=O)sc2cc(S(=O)(=O)N3CCC(C(=O)Nc4cc(C)ccn4)CC3)ccc21` showed an RP-LC retention time of 702 s. For `Cc1ccc(-c2cn3c(CC(=O)Nc4ccc(F)cc4F)csc3n2)cc1C` the value was 861 s; for `CCCCc1ccc(NC(=O)CSc2cc(N3CCN(c4ccccc4OC)CC3)ncn2)cc1`, 1310 s; for `Cc1nc(C)c(C(=O)Nc2ccc(F)cc2C)s1`, 799 s.

For `COc1ccc(C2Cn3nnc(-c4nc(-c5cccc(C)c5)no4)c3CO2)cc1` (stereo not given), the RP-LC retention time was 1190 s. In turn, `CC1(C)CC2CC(C)(CN2c2ncnc(N)c2[N+](=O)[O-])C1` (stereo not given) gave an RP-LC retention time of 867 s. `Cc1ccc(-c2csc(NC3OC(=O)c4ccccc43)n2)cc1C` (stereo not given) yielded an RP-LC retention time of 808 s. In turn, `COc1ccccc1C(CNC(=O)c1cc(=O)c2cc(C)c(C)cc2o1)N(C)C` (stereo not given) yielded an RP-LC retention time of 651 s. Compound `CCc1ccccc1NC(=O)C1CCCN(S(=O)(=O)c2cn(C(C)C)cn2)C1` (stereo not given) came in with an RP-LC retention time of 782 s. The result for `CCC(=O)N(C1CCOCC1)C1CCN(S(=O)(=O)c2ccc(Cl)cc2C)CC1` reads 911 s; that for `Cc1cc(C)n(CCC(=O)N2CCC(n3c(C)cnc3C)C2)n1` (stereo not given), 563 s. For `COCCc1noc(-c2cnc3nc(C)ccc3c2Nc2cccc(C)c2)n1` the value was 728 s; for `Cc1noc(CNC(=O)C2CCN(C(=O)Cn3c(=O)oc4ccccc43)CC2)n1`, 608 s. As to `CN1C(=O)c2cccn2CC1C(=O)Nc1ccccc1F` (stereo not given), the RP-LC retention time came out at 673 s.

With `CNC(=O)c1ccc(-c2nc3cc(NS(=O)(=O)c4ccc(Cl)s4)ccc3n2C)cc1`, the RP-LC retention time was 660 s.

The compound `CC1CCN(S(=O)(=O)c2ccc3nn(CC#N)c(=O)n3c2)CC1` showed an RP-LC retention time of 813 s.

In turn, `CCC(=O)N1CCN(c2nc3c(s2)CC(C(=O)Nc2cc(F)ccc2F)CC3)CC1` (stereo not given) returned an RP-LC retention time of 633 s. `CC(C)c1cc(C(=O)Nc2ccc(F)c(Cl)c2)nn1C1CCS(=O)(=O)C1` (stereo not given) registered an RP-LC retention time of 997 s. With `O=C(Cc1csc2nc(-c3ccccc3)cn12)NC1CCCCCCC1`, the RP-LC retention time was determined as 877 s. In the case of `COc1cc(NC(=O)c2cc(C)n3nc(C)cc3n2)cc(OC)c1OC`, the RP-LC retention time was 847 s. In turn, `CCN(C(=O)c1ccccc1OC)c1nc(-c2ccccc2)cs1` showed an RP-LC retention time of 1210 s. With `CCCn1cc(S(=O)(=O)Nc2cc(Cl)ccc2OC)c2cccnc21`, the RP-LC retention time was found to be 995 s. Turning to `CSc1ccc(CNC(=O)c2cn3cccc(C)c3n2)cc1`, the RP-LC retention time was found to be 755 s.

The compound `O=C(CN1C(=O)CCC1=O)NCC(O)C1CCCCC1` (stereo not given) gave an RP-LC retention time of 597 s. Compound `O=C(Nc1ccc(F)cc1)N1CCN(Cc2nc3cc(-c4ccccc4)ccc3o2)CC1` yielded an RP-LC retention time of 860 s. Take `CC(C)CCN1CCC(N2CCN(C(=O)c3cccs3)CC2)C1=O` (stereo not given): the RP-LC retention time stood at 567 s. For `Cc1c(C(=O)NC2CCCCCC2)sc2ncn(CC(=O)N3CC(C)CC(C)C3)c(=O)c12` (stereo not given), the RP-LC retention time was found to be 1070 s.

Take `CC(C)n1cnc(S(=O)(=O)N2CCCC(C(=O)Nc3ccc(Br)cc3F)C2)c1` (stereo not given): the RP-LC retention time stood at 893 s. `O=C(NCc1nc(-c2ccccc2)no1)c1cc(C2CC2)on1` yielded an RP-LC retention time of 822 s. In turn, `COc1ccc(-c2noc(C3CCCN3C(=O)c3ccc(C#N)cc3)n2)cc1OC` (stereo not given) returned an RP-LC retention time of 783 s.

`O=C(C1CC1)N1CCc2sc(S(=O)(=O)NCc3cccc(F)c3)cc2C1` gave an RP-LC retention time of 805 s. For `CS(=O)(=O)N1CCC(OC2CCN(C(=O)Nc3c(F)cccc3F)CC2)CC1` the value was 688 s; for `COc1ccc(CCNC(=O)c2ccc3c(c2)N(C)C(=O)C2CCCCN32)cc1OC` (stereo not given), 774 s. In turn, `Cc1cc(C)cc(NC(=O)Cn2nc3n(c2=O)CCCC3)c1` returned an RP-LC retention time of 674 s. Turning to `Cn1nc(C(=O)N2CCOCC2)c2c1CCN(C(=O)Nc1ccc(F)c(Cl)c1)C2`, the RP-LC retention time is 1070 s. In turn, `COc1cc(Cl)c(NC(=O)C2CCN(C(=O)c3cc(-c4ccncc4)n[nH]3)CC2)c(OC)c1` came in with an RP-LC retention time of 629 s. The result for `O=C(NC1CCCCCC1)c1nc(-c2ccnc(N3CCCCC3)c2)no1` reads 883 s; that for `CCc1nccn1Cc1noc(-c2ccco2)n1`, 566 s; that for `Cc1ccc(-c2cn3c(n2)N(C(=O)c2nc4ncccn4n2)CCC3)cc1`, 611 s. For `Cc1ccc2oc(CN3CCN(C(=O)Nc4ccccc4F)CC3)nc2c1` the value was 699 s; for `O=C(NC1CCN(c2cc(-c3cccs3)[nH]n2)C1)c1ccccn1` (stereo not given), 667 s; for `COc1ccc(Cl)c(Nc2nc3ccccc3nc2NS(=O)(=O)c2cccc(NC(=O)C(C)(C)N)c2)c1`, 879 s. Regarding `Cn1cc(S(=O)(=O)Nc2ccc(F)cc2Cl)c2cccnc21`, the RP-LC retention time turned out to be 814 s. With `Cc1ccc(Nc2nc(C)cc(N3CCN(C(=O)Nc4ccccc4C)CC3)n2)cc1`, the RP-LC retention time is 704 s. In the case of `CC1CCN(C(=O)Cn2nc(C(=O)N3CCCC3)c3ccccc32)CC1`, the RP-LC retention time stood at 846 s. `COCc1nnc(C(=O)Nc2ccc(C(=O)NCCc3c[nH]c4ccc(OC)cc34)cc2)s1`: the RP-LC retention time stood at 790 s. `COc1cc(C(CC(=O)NC2CCCC2)N2Cc3ccccc3C2=O)cc(OC)c1OC` (stereo not given) displayed an RP-LC retention time of 755 s.
